Assay results as given in US5278148A (Hoffmann-La Roche Inc., priority 1989, dated 1994).

target: T1, human renin (Homo sapiens, UniProt P00797); test: In vitro test with pure human renin; type: biochemical; conditions: human tetradecapeptide renin substrate (hTD), pH 7.4, incubated three hours at 37° C. or 4° C., angiotensin I via RIA
T1 sequence (P00797 67-406): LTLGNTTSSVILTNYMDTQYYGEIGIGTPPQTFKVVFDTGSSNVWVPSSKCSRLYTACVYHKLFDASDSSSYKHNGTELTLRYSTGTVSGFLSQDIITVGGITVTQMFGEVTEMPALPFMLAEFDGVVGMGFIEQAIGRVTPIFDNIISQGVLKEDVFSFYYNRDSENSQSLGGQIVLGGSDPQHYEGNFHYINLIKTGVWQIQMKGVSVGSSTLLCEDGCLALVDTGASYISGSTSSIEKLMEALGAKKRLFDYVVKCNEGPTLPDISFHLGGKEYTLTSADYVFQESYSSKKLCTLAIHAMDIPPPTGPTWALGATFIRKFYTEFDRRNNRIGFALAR
Experimental: In Vitro Test with Pure Human Renin
The test is carried out in Eppendorf test tubes. The incubation mixture consists of (1) 100 μl of human renin in buffer A (0.1M sodium phosphate solution, pH 7.4, 0.1% bovine serum albumin, 0.1% sodium azide and 1 mM ethylenediaminetetraacetic acid), sufficient for a renin activity of 2-3 ng of angiotensin I/ml/hr.; (2) 145 μl of buffer A; (3) 30 μl of 10 μm human tetradecapeptide renin substrate (hTD) in 10 mM hydrochloric acid; (4) 15 μl of dimethyl sulfoxide with or without inhibitor and (5) 10 μl of a 0.03 molar solution of hydroxy- quinoline sulfate in water.
The samples are incubated for three hours at 37° C. or 4° C. in triplicate. 2×100 μl samples per experimental test tube are used in order to measure the production of angiotensin I via RIA (standard radioimmunoassay; clinincal assay solid phase kit). Cross reactivities of the antibody used in the RIA are: angiotensin I 100%; angiotensin II 0.0013%; hTD (angiotensin I-Val-Ile-His-Ser-OH) 0.09%. The production of angiotensin I is determined by the difference between the experiment at 37° C. and that at 4° C.
The following controls are carried out:
(a) Incubation of hTD samples without renin and without inhibitor at 37° C. and 4° C. The difference between these two values gives the base value of angiotensin I production.
(b) Incubation of hTD samples with renin, but without inhibitor at 37° C. and 4° C. The difference between these values gives the maximal value of angiotensin I production.
In each sample the base value of angiotensin I production is substracted from the angiotensin I production which is determined. The difference between the maximal value and the base value gives the value of the maximal substrate hydrolysis (=100%) by renin.
The results are given as IC50 values which denote that concentration of the inhibitor at which the enzymatic activity is inhibited by 50%. The IC50 values are determined from a linear regression curve from a logit-log plot.

Compound	IC50 [nM]
CC(C)(C)C(=O)C[C@@H](Cc1ccccc1)C(=O)N[C@@H](Cc1c[nH]cn1)C(=O)N[C@@H](CC1CCCCC1)[C@@H](O)CN1CCCCC1=O [A, (S)-N-[(1S,2S)-1-(Cyclohexylmethyl)-2-hydroxy-3-(2oxopiperidino)propyl]-α-[(R)-α-(3,3-dimethyl-2-oxobutyl)hydrocinnamamido]imidazole-4-propionamide]	41
CN(C[C@H](O)[C@H](CC1CCCCC1)NC(=O)[C@H](Cc1c[nH]cn1)NC(=O)[C@H](Cc1ccccc1)NC(=O)OC(C)(C)C)C(=O)[C@H](Cc1c[nH]cn1)NC(=O)[C@H](Cc1ccccc1)NC(=O)OC(C)(C)C [E]	30
CN(C[C@H](O)[C@H](CC1CCCCC1)NC(=O)[C@H](Cc1c[nH]cn1)NC(=O)[C@H](Cc1ccccc1)NC(=O)OC(C)(C)C)C(=O)[C@H](Cc1ccccc1)NC(=O)OC(C)(C)C [F, t-Butyl [(S)-α-[[(2S,3S)-3-[(S)-2-[(S)-α-(1-t-butoxyformamido)hydrocinnamamido]-3-imidazol-4-ylpropionamido]-4-cyclohexyl-2-hydroxybutyl]methylcarbamoyl]phenethyl]carbamate]	15
CC(C)(C)C(=O)C[C@@H](Cc1ccccc1)C(=O)N[C@@H](Cc1c[nH]cn1)C(=O)N[C@@H](CC1CCCCC1)[C@@H](O)CN1C(=O)c2ccccc2C1=O [G, (S)-N-[(1S,2S)-1-(Cyclohexylmethyl)-2-hydroxy-3-phthalimidopropyl]-α-[(R)-α-(3,3-dimethyl-2-oxobutyl)hydrocinnamamido]imidazole-4-propionamide]	20
(S)-N-[(1S,2S)-1-(Cyclohexylmethyl)-3-[(S)-α-[(R)-α-(3,3-dimethyl-2-oxobutyl)hydrocinnamamido]-N-isopropylimidazol-4-propionamido]-2-hydroxypropyl]-α-[(R)-α-(3,3-dimethyl-2-oxobutyl)hydrocinnamamido]imidazole-4-propionamide	41

More lines, now with the values ahead:

IC50 [nM]	Compound
28	CN(C[C@H](O)[C@H](CC1CCCCC1)NC(=O)[C@H](Cc1c[nH]cn1)NC(=O)[C@@H](CC(=O)C(C)(C)C)Cc1ccccc1)C(=O)[C@H](Cc1c[nH]cn1)NC(=O)[C@@H](CC(=O)C(C)(C)C)Cc1ccccc1 [C]
19	CN(C[C@H](O)[C@H](CC1CCCCC1)NC(=O)[C@H](Cc1c[nH]cn1)NC(=O)[C@@H](CC(=O)C(C)(C)C)Cc1ccccc1)C(=O)[C@H](Cc1c[nH]cn1)NC(=O)CCc1ccccc1 [D, (S)-N-[(1S,2S)-1-(Cyclohexylmethyl)-2-hydroxy-3-[(S)-3-(imidazol-4-yl)-2-hydrocinnamamido-N-methylpropionamido]propyl]-α-[(R)-α-(3,3-dimethyl-2-oxobutyl)hydrocinnamamido]imidazole-4-propionamide]
